# Test results taken from publication PMC6058718, “Doxorubicin conjugated with a trastuzumab epitope and an MMP-2 sensitive peptide linker for the treatment of HER2-positive breast cancer” (Drug Delivery, 2018).
# Read-outs that look alike come from different tables or passages of the source. Where a SMILES comes first, the peptide text is derived from it. Bridges are numbered along the chain shown (N, C = ends). Where no end group is shown, it is not given here. The star is where a group is joined. Glutaryl(5-(14-O-Dox)) = COc1cccc2c1C(=O)c1c(O)c3c(c(O)c1C2=O)C[C@@](O)(C(=O)COC(=O)CCCC(=O)*)C[C@@H]3O[C@H]1C[C@H](N)[C@H](O)[C@H](C)O1
# Tests used:
# [1] = Pharmacokinetic profile in plasma of mice; conditions: intravenous injection, blood 0.083-24 h post injection, LC-MS/MS, n = 3
# Description: (§1) When the tumor size reached a volume of about 50 mm^3, the mice were randomly divided into three groups (each group consisted of 6 mice) for the treatment with 5 mg DOX equivalent/kg of either free DOX or MAHNP-DOX once every seven days for three times. Saline was used as negative control. The animals’ weight and tumor dimensions were measured every five days. Tumor volume was calculated using an equation: TV =1/2 × a × b^2, where a is the largest diameter and b is the smallest diameter. Each animal was tagged in the ear and followed individually throughout the experiment. For in vivo imaging study, the mice were intravenously injected through the caudal vein by 5 mg DOX equivalent/kg of free DOX and MAHNP-DOX, images were taken on IVIS LuminaXR imaging system (Perkin Elmer, San Diego, CA, USA) at 4 h post injection. Tumors and organ samples including heart, liver, spleen, kidneys and lungs were carefully removed and stored in liquid nitrogen. To assess the pharmacokinetic profile of the drugs, free DOX and MAHNP-DOX were injected intravenously into the mice, respectively. Blood samples were collected at 0.083, 0.25, 0.5, 1, 2, 4, 8, 12 and 24 h post injection.
# BT474 xenografts = conditions: 5 mg DOX equivalent/kg once every seven days for three times, nude mice with BT474 xenografts
# Description: Eighteen athymic nude mice (Balb/c nu/nu, females) were used. All animal experiments were carried out in accordance with guidelines evaluated and approved by the ethics committee of Nanjing Medical University. BT474 cells were first collected in a concentration of 1 × 10^7/mL and orthotopically injected into the mammary fat pad area of each mouse with 0.1 mL PBS/mouse.
# as §1
# BT474 cells [2] = experiment: MTT cytotoxicity assay, BT474 cells; assay type: cell-based, human
# Description: (§2) The cytotoxicity of MAHNP-DOX was determined using MTT test. Free DOX was used as positive control, and the cells treated with conditioned medium only were considered as negative control. BT474 and SKBR3 cells in exponential growth were seeded in a 96-well plate and incubated for 24 h at 37 °C. Then, a series of dilutions of free DOX and MAHNP-DOX at equivalent concentration were prepared with the conditioned medium and incubated for another 48 h. After an addition of MTT solution (5 mg/ml in PBS) to each well, the cells were incubated for 4 h and lysed in DMSO. Absorbance was determined at 490 nm using an EL ×800 absorbance microplate reader (Biotek, Winooski, VT, USA). The IC50 values were calculated from the linear regression of the dose–log response curves using GraphPad Prism 6 software (GraphPad Software, San Diego, CA, USA).
# (§3) To further confirm the dependence of cytotoxicity on MMP-2 activity, NIH-3T3 cells were pre-incubated with 10 μM MMP-2 inhibitor I in serum-free medium for 24 h, and the medium was also collected termed as treated conditioned medium. Following the procedure above, the cytotoxicity of MAHNP-DOX was also determined using this medium.
# SKBR3 cells [3] = experiment: MTT cytotoxicity assay, SKBR3 cells; assay type: cell-based, human
# Description: as §2, §3
# BT474 cells [4] = experiment: TUNEL assay, BT474 cells; assay type: cell-based, human; conditions: 24 h treatment, n = 3
# Description: (§4) Transferase-mediated nick-end labeling assay was carried out using the DeadEnd Fluorometric TUNEL system kit (Promega, Madison, WI, USA). […] Images were acquired at room temperature with an inverted fluorescence microscope (Leica, DMI3000B, Wetzlar, Germany).
# SKBR3 cells [5] = experiment: TUNEL assay, SKBR3 cells; assay type: cell-based, human; conditions: 24 h treatment, n = 3
# Description: as §4
# [6] = Biodistribution in BT474 tumor-bearing mice by fluorescent imaging and HPLC; assay type: in vivo; conditions: 4 h after intravenous injection, 5 mg DOX equivalent/kg
# Excerpt: Saline was used as negative control.
# Daunorubicin (DAU) was used as internal standard.
# MMP-2 = target: T1, MMP-2 (Mus musculus, UniProt P33434); experiment: Enzymatic cleavage of MAHNP-DOX by MMP-2 in NIH-3T3 conditioned medium; assay type: in vitro ADME; conditions: 5 μM MAHNP-DOX in concentrated conditioned medium from NIH-3T3 cells containing active MMP-2, 37 °C, 2 h of incubation, HPLC / LC-MS/MS
# T1 construct: 4 mL of the medium containing active MMP-2 (i.e. conditioned medium) was collected and concentrated; endogenous in cells; host or cells: NIH-3T3 fibroblasts; serum-free conditioned medium concentrated with a 10 K centrifugal filter
# T1 sequence (P33434 110-662): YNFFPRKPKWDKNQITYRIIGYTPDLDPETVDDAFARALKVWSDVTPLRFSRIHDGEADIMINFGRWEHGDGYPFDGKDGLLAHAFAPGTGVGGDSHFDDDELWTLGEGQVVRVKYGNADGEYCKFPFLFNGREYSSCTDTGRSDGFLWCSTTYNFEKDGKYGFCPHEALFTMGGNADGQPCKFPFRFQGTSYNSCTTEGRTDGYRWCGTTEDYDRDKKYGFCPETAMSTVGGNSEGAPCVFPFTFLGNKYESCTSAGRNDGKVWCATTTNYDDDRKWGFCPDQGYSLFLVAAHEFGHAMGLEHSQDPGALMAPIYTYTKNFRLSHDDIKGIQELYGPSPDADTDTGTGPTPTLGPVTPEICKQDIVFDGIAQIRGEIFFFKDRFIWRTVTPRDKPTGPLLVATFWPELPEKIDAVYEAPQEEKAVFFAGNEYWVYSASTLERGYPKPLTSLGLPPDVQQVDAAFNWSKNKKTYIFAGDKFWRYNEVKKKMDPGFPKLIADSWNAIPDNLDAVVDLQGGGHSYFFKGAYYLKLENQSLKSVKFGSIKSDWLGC
# Description: NIH-3T3 cells that can secrete active MMP-2 (Figure S1) were cultured in serum-free medium for 24 h. Then, 4 mL of the medium containing active MMP-2 (i.e. conditioned medium) was collected and concentrated to 500 μL using Amicon Ultra-4 10 K centrifugal filter devices (Millipore, Bedford, MA, USA) (Aye et al., [2004]). Dilution of MAHNP-DOX at a concentration of 5 μM was prepared with the concentrated conditioned medium and incubated at 37 °C. Aliquots were removed at 1 h and 2 h and then analyzed by LC–MS/MS (van Duijnhoven et al., [2011]). The analysis was performed on XBridge™ C18 column (5 μm, 4.6 × 250 mm; Waters, Milford, MA, USA) at room temperature. The flow rate of HPLC was 0.3 mL/min with a mobile phase consisted of solvent A (water with 0.1% FA) and solvent B (ACN). The gradient was as follows: B 0 min (10%) → 15 min (90%) → 20 min (90%) → 25 min (10%).
# The sensitivity of MAHNP-DOX to MMP-2 was studied using HPLC. To date, there has been substantial evidence indicating stronger signals for MMP-2 in stromal cells compared to cancer cells, while stromal fibroblasts interact with cancer cells by secreting and activating MMP-2 (Saad et al., [2002]; Hassona et al., [2014]). […] Thus, the peaks for MAHNP-DOX and one product after cleavage of GLPG-DOX were monitored. […]
# [7] = target: human epidermal growth factor receptor family member HER2 (human (endogenous in BT474 and SKBR3)) (UniProt P04626)
# [8] = 48 h, in conditioned medium, n = 3, read-out: IC50
# [9] = conditioned medium from NIH-3T3 cells pretreated with 10 μM MMP-2 inhibitor I, n = 3, read-out: IC50 with MMP-2 inhibitor pretreatment
"increase of the cell population in the G1 phase, BT474 cells, 48 h exposure to AHNP (10 μM) alone, flow cytometry [7] [%]","increase of the cell population in the G1 phase, SKBR3 cells, 48 h exposure to AHNP (10 μM) alone, flow cytometry [7] [%]",Molecule,half-life t1/2 in plasma [1] [h],tumor growth inhibition (BT474 xenografts; day 25 after treatment) [%],toxicity / body weight change (BT474 xenografts),IC50 (BT474 cells [2]; [8]) [nM],IC50 (SKBR3 cells [3]; [8]) [nM],percentage of apoptotic cells (BT474 cells [4]) [%],percentage of apoptotic cells (SKBR3 cells [5]) [%],IC50 (BT474 cells [2]; [9]) [nM],"drug amount in the tumors compared with free DOX ([6]; fluorescent images confirmed by HPLC, p < .01)","drug accumulation in heart, liver, spleen, lung and kidney compared with free DOX ([6]; p < .05)",IC50 (SKBR3 cells [3]; [9]) [nM],efficiency of cleavage (MMP-2) [%]
–,–,"COc1cccc2c1C(=O)c1c(O)c3c(c(O)c1C2=O)C[C@@](O)(C(=O)CO)C[C@@H]3O[C@H]1C[C@H](N)[C@H](O)[C@H](C)O1.Cl [free DOX, Doxorubicin hydrochloride]",7.7 ± 1.6,53.4 ± 6.6,Toxicity was observed,2080 ± 368,173 ± 19.2,34.2 ± 2.1,44.8 ± 2.8,–,–,–,–,–
–,–,COc1cccc2c1C(=O)c1c(O)c3c(c(O)c1C2=O)C[C@@](O)(C(=O)COC(=O)CCCC(=O)NCC(=O)N1CCC[C@H]1C(=O)N[C@@H](CC(C)C)C(=O)NCC(=O)N[C@@H](CC(C)C)C(=O)N[C@@H](C)C(=O)NCC(=O)N[C@@H](CC(=O)O)C(=O)N[C@@H](CC(=O)O)C(=O)N[C@@H](Cc1ccc(O)cc1)C(=O)N[C@H]1CSSC[C@@H](C(=O)N[C@@H](Cc2ccc(O)cc2)C(=O)N[C@@H](CCSC)C(=O)N[C@@H](CC(=O)O)C(=O)N[C@H](C(N)=O)C(C)C)NC(=O)[C@H](C)NC(=O)[C@H](Cc2ccc(O)cc2)NC(=O)[C@H](Cc2ccccc2)NC(=O)CNC(=O)[C@H](CC(=O)O)NC1=O)C[C@@H]3O[C@H]1C[C@H](N)[C@H](O)[C@H](C)O1 [MAHNP-DOX] ({Glutaryl(5-(14-O-Dox))}-GPLGLAGDDYCDGFYACYMDV-NH2; disulfide 11-17),17.6 ± 6.4,–,less weight loss,747 ± 81.5,110 ± 12.7,–,–,1350 ± 154,significantly higher,lower,147 ± 16.3,80.8
6.58,9.95,YCDGFYACYMDV-NH2 (disulfide 2-8) [anti-HER2 peptide mimetic AHNP],–,–,–,–,–,–,–,–,–,–,–,–
